The values below come from PubChem BioAssay AID248 (DTP/NCI, 2004).

“And” between values parts separate entries of the source, which are not always exact repeats. Equal values may be shown once. Inconclusive results and toxic doses are left out.

This experiment deals with L1210 leukemia ip in BDF1 mice, survival T/C. In words: NCI In Vivo Anticancer Drug Screen. Data for tumor model L1210 Leukemia (intraperitoneal) in B6D2F1 (BDF1) mice. The conditions noted are these: endpoint: mean survival time, higher = longer survival. The gist of the method:
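Value reflects the ratio of survival in compound-treated mice to survival in vehicle-treated controls, with both groups carrying the same transplanted tumor.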

Setting [1] is: dose: 200.0 mg/kg/injection, schedule: Q04DX003 (ip), vehicle: saline with Tween-80.
[2] abbreviates: dose: 100.0 mg/kg/injection, schedule: Q01DX009 (ip), vehicle: Klucel (hydroxypropylcellulose) (HPC).
[3] abbreviates: dose: 200.0 mg/kg/injection, schedule: Q01DX009 (ip), vehicle: Klucel (hydroxypropylcellulose) (HPC).

For `COc1ccc(CC(N)C(=O)OCc2ccccc2)cc1N(CCCl)CCCl` (stereo not given), the T/C runs as follows: (dose: 0.08 mg/kg/injection, schedule: Q01DX009 (ip), vehicle: saline) 113 % of control; (dose: 0.15 mg/kg/injection, schedule: Q01DX009 (ip), vehicle: saline) 118 % of control; (dose: 0.3 mg/kg/injection, schedule: Q01DX009 (ip), vehicle: saline) 118 % of control; (dose: 0.75 mg/kg/injection, schedule: Q01DX001 (ip), vehicle: saline) 110 % of control; (dose: 1.5 mg/kg/injection, schedule: Q01DX001 (ip), vehicle: saline) 104 % of control; (dose: 6.0 mg/kg/injection, schedule: Q01DX009 (ip), vehicle: saline) 93 % of control. For the setting “dose: 12.5 mg/kg/injection, schedule: Q01DX001 (ip), vehicle: saline”, the T/C was 155 % of control.

On to `Cc1ccc(S(=O)(=O)Nc2cc(Cl)c(I)cc2Cl)cc1`, for which the T/C is, setting by setting: under setting [1], 90 % of control; (dose: 400.0 mg/kg/injection, schedule: Q04DX003 (ip), vehicle: saline with Tween-80) 101 % of control.

`NC(N)=NCCN1C(c2ccccc2)C1c1ccccc1` (stereo not given): the T/C reads like this: (dose: 12.5 mg/kg/injection, schedule: Q04DX002 (ip), vehicle: saline with Tween-80) 107 % of control; (dose: 25.0 mg/kg/injection, schedule: Q04DX002 (ip), vehicle: saline with Tween-80) 103 % of control; (dose: 50.0 mg/kg/injection, schedule: Q04DX002 (ip), vehicle: saline with Tween-80) 100 % of control.

For the molecule `CCOC(=O)C(C)(C)CN(CC(C)(C)C(=O)OCC)C(C)(C)CO`, the T/C runs as follows: (dose: 100.0 mg/kg/injection, schedule: Q01DX001 (ip), vehicle: other) 95 % of control; (dose: 200.0 mg/kg/injection, schedule: Q01DX001 (ip), vehicle: other) 98 % of control; (dose: 400.0 mg/kg/injection, schedule: Q01DX001 (ip), vehicle: other) 87 % of control.

For `Cc1ccc2[nH]c3c(C)c4ccncc4c(C)c3c2c1`, the T/C is, setting by setting: (dose: 12.5 mg/kg/injection, schedule: Q01DX Z (ip), vehicle: saline) 103 % of control; (dose: 25.0 mg/kg/injection, schedule: Q01DX Z (ip), vehicle: saline) 97 % of control; (dose: 50.0 mg/kg/injection, schedule: Q01DX Z (ip), vehicle: saline) 111 % of control; (dose: 75.0 mg/kg/injection, schedule: Q01DX Z (ip), vehicle: saline) 102 % of control; (dose: 100.0 mg/kg/injection, schedule: Q01DX001 (ip), vehicle: saline) 105 % of control; (dose: 100.0 mg/kg/injection, schedule: Q01DX Z (ip), vehicle: saline) 97 % of control and 107 % of control. The T/C is 100 % of control (dose: 150.0 mg/kg/injection, schedule: Q01DX Z (ip), vehicle: saline); 98 % of control (dose: 200.0 mg/kg/injection, schedule: Q01DX001 (ip), vehicle: saline); 105 % of control (dose: 225.0 mg/kg/injection, schedule: Q01DX Z (ip), vehicle: saline); 102 % of control (dose: 340.0 mg/kg/injection, schedule: Q01DX Z (ip), vehicle: saline); 100 % of control (dose: 400.0 mg/kg/injection, schedule: Q01DX001 (ip), vehicle: saline).

As for `CSc1ncc(C#N)c(N)n1`, the T/C is 98 % of control (dose: 50.0 mg/kg/injection, schedule: Q01DX009 (ip), vehicle: saline with Tween-80); 93 % of control (dose: 100.0 mg/kg/injection, schedule: Q01DX009 (ip), vehicle: saline with Tween-80); 97 % of control (dose: 100.0 mg/kg/injection, schedule: Q04DX003 (ip), vehicle: saline with Tween-80); 104 % of control (dose: 200.0 mg/kg/injection, schedule: Q01DX009 (ip), vehicle: saline with Tween-80); 94 % of control under setting [1].

As to `O=C(c1ccccc1)N1CCCCC1`, the T/C reads like this: (dose: 100.0 mg/kg/injection, schedule: Q01DX009 (ip), vehicle: saline) 95 % of control; (dose: 100.0 mg/kg/injection, schedule: Q04DX003 (ip), vehicle: saline) 95 % of control; (dose: 200.0 mg/kg/injection, schedule: Q01DX009 (ip), vehicle: saline) 95 % of control; (dose: 200.0 mg/kg/injection, schedule: Q04DX003 (ip), vehicle: saline) 94 % of control.

For `CCCCCCCCCCCCOc1ccccc1C(=O)O`, the T/C is, setting by setting: (dose: 100.0 mg/kg/injection, schedule: Q01DX009 (ip), vehicle: saline sonified) 98 % of control; (dose: 100.0 mg/kg/injection, schedule: Q04DX003 (ip), vehicle: Klucel (hydroxypropylcellulose) (HPC)) 97 % of control; (dose: 200.0 mg/kg/injection, schedule: Q01DX009 (ip), vehicle: saline sonified) 116 % of control; (dose: 200.0 mg/kg/injection, schedule: Q04DX003 (ip), vehicle: Klucel (hydroxypropylcellulose) (HPC)) 89 % of control; (dose: 400.0 mg/kg/injection, schedule: Q01DX009 (ip), vehicle: saline sonified) 108 % of control; (dose: 400.0 mg/kg/injection, schedule: Q04DX003 (ip), vehicle: Klucel (hydroxypropylcellulose) (HPC)) 99 % of control.

`CCCCCCCC(=O)[O][Hg][c]1ccccc1`: the T/C (dose: 9.38 mg/kg/injection, schedule: Q01DX001 (ip), vehicle: saline) is 98 % of control; the T/C (dose: 18.75 mg/kg/injection, schedule: Q01DX001 (ip), vehicle: saline) is 88 % of control; the T/C (dose: 37.5 mg/kg/injection, schedule: Q01DX001 (ip), vehicle: saline) was 102 % of control.

As for `O=C(O)c1cc(Br)c(Cl)c(Br)c1`, the T/C was 100 % of control (dose: 100.0 mg/kg/injection, schedule: Q04DX002 (ip), vehicle: Klucel (hydroxypropylcellulose) (HPC)) and 100 % of control (dose: 200.0 mg/kg/injection, schedule: Q04DX002 (ip), vehicle: Klucel (hydroxypropylcellulose) (HPC)).

With `CCCCCS(=O)(=O)N1CCCCC1`, the T/C reads like this: (dose: 100.0 mg/kg/injection, schedule: Q04DX002 (ip), vehicle: other) 103 % of control; (dose: 200.0 mg/kg/injection, schedule: Q04DX002 (ip), vehicle: other) 92 % of control; (dose: 400.0 mg/kg/injection, schedule: Q04DX002 (ip), vehicle: other) 107 % of control.

Regarding `O=[N+]([O-])c1cccc(-c2nc3ncncc3[nH]2)c1`, the T/C is 102 % of control (dose: 50.0 mg/kg/injection, schedule: Q01DX001 (ip), vehicle: saline with Tween-80); 101 % of control (dose: 100.0 mg/kg/injection, schedule: Q01DX001 (ip), vehicle: saline with Tween-80); 98 % of control (dose: 200.0 mg/kg/injection, schedule: Q01DX001 (ip), vehicle: saline with Tween-80).

On to `O=C(Nc1ccc(F)cc1)Nc1cc(C(F)(F)F)ccc1Cl`, for which the T/C reads like this: (dose: 50.0 mg/kg/injection, schedule: Q01DX009 (ip), vehicle: Klucel (hydroxypropylcellulose) (HPC)) 107 % of control; under setting [2], 92 % of control; under setting [3], 92 % of control.

As for `COc1ccc(-c2cc(-c3ccccc3)c3ccccc3n2)c(OC)c1OC`, the T/C was 100 % of control under setting [2]; 90 % of control under setting [3]; 90 % of control (dose: 400.0 mg/kg/injection, schedule: Q01DX009 (ip), vehicle: Klucel (hydroxypropylcellulose) (HPC)).

Turning to `O=C(O)c1ccc(C(=O)O)c(C(=O)O)c1.[NH-]C1CCCCC1[NH-].[Pt+2]`, the T/C was 198 % of control (dose: 1.6 mg/kg/injection, schedule: Q01DX009 (ip), vehicle: sodium bicarbonate); 256 % of control (dose: 3.2 mg/kg/injection, schedule: Q01DX009 (ip), vehicle: sodium bicarbonate); 187 % of control (dose: 3.3 mg/kg/injection, schedule: Q01DX009 (ip), vehicle: saline); 250 % of control (dose: 4.8 mg/kg/injection, schedule: Q01DX009 (ip), vehicle: sodium bicarbonate); 179 % of control (dose: 6.4 mg/kg/injection, schedule: Q01DX009 (ip), vehicle: sodium bicarbonate); 112 % of control (dose: 6.5 mg/kg/injection, schedule: Q01DX001 (ip), vehicle: saline). Further, the T/C is 194 % of control (dose: 6.5 mg/kg/injection, schedule: Q01DX009 (ip), vehicle: saline); 115 % of control (dose: 13.0 mg/kg/injection, schedule: Q01DX001 (ip), vehicle: saline); 152 % of control (dose: 13.0 mg/kg/injection, schedule: Q01DX009 (ip), vehicle: saline); 220 % of control (dose: 20.0 mg/kg/injection, schedule: Q01DX001 (ip), vehicle: sodium bicarbonate); 102 % of control (dose: 26.0 mg/kg/injection, schedule: Q01DX009 (ip), vehicle: saline); 205 % of control (dose: 40.0 mg/kg/injection, schedule: Q01DX001 (ip), vehicle: sodium bicarbonate).
